Laboratory results taken from US20130123355A1, “Fatty acids and metal ions compositions and uses thereof” (priority 2011, published 2013).

Key:
Type in all cases: in vivo
Conditions in all cases: diet
Sprague-Dawley rats = test: Forced Swim Test
Description: Sprague-Dawley rats are fed diet supplemented with Mg-DHA, Mg Citrate, or DHA. […] Various established parameters of antidepressant activity including reduced immobility time, increased swimming, and increased climbing behavior are quantitated to assess the antidepressant activity.
Sprague-Dawley rats are fed diet supplemented with Mg-DHA-LysoPC, Mg Citrate, or DHA-lysoPC. […] Various established parameters of antidepressant activity including reduced immobility time, increased swimming, and increased climbing behavior are quantitated to assess the antidepressant activity.
Sprague-Dawley rats are fed diet supplemented with Mg-EPA, Mg Citrate, or EPA. […] Various established parameters of antidepressant activity including reduced immobility time, increased swimming, and increased climbing behavior are quantitated to assess the antidepressant activity.
(§1) Sprague-Dawley rats are fed diet supplemented with Zn-DHA, Zinc gluconate, or DHA. On Zn-DHA or Zinc gluconate supplemented diet, rats consume about 1 mg/kg body weight/day of elemental zinc, on a feeding schedule so as to maintain 85% of its free-feeding weight. […] Various established parameters of antidepressant activity including reduced immobility time, increased swimming, and increased climbing behavior are quantitated to assess the antidepressant activity.
as §1, with “Zn-DHA-lysoPC, zinc” for “Zn-DHA, Zinc”, “Zn-DHA-lysoPC” for “Zn-DHA”, “zinc” for “Zinc”
as §1, with “Zn-EPA, zinc” for “Zn-DHA, Zinc”, “EPA.” for “DHA.”, “Zn-EPA” for “Zn-DHA”, “zinc” for “Zinc”
Sprague-Dawley rats are fed diet supplemented with Li-DHA, lithium carbonate, or DHA. […] Various established parameters of antidepressant activity including reduced immobility time, increased swimming, and increased climbing behavior are quantitated to assess the antidepressant activity.
Sprague-Dawley rats are fed diet supplemented with Li-DHA-lysoPC, lithium carbonate, or DHA. […] Various established parameters of antidepressant activity including reduced immobility time, increased swimming, and increased climbing behavior are quantitated to assess the antidepressant activity.
Sprague-Dawley rats are fed diet supplemented with Li-EPA, lithium carbonate, or EPA. […] Various established parameters of antidepressant activity including reduced immobility time, increased swimming, and increased climbing behavior are quantitated to assess the antidepressant activity.

rats [1] = test: T-maze test (forced alternation or left-right discrimination task)
Method: (§2) Mg-DHA composition is provided as supplement in standard rat feed. On an average, rats consume about 50 mg/Kg/day of elemental Mg, on a feeding schedule so as to maintain 85% of its free-feeding weight. In the control group, rats are fed either DHA or magnesium citrate (Mg Citrate) supplemented diet on schedule similar to test group. After habituation to the apparatus and pre-training, each rat undergoes 4 trials of standard T-maze test (Shoji et al, J. Vis. Exp. (60), e3300, DOI: 10.3791/3300 (2012)) on day 1 or day 21 of Mg-DHA, Mg Citrate, or DHA feeding. Rats are subject to either forced alternation task or left-right discrimination task. Behaviors in the T-maze apparatus is recorded and statistically analyzed by two way repeated measures analysis of variance. […] In another set of experiments, rats fed with DHA, Mg Citrate, or Mg-DHA for 21 days are subject to novel-object-location (NOL) tests.
(§3) Mg-DHA composition is provided as supplement in standard rat feed. On an average, rats consume about 50 mg/Kg/day of elemental Mg, on a feeding schedule so as to maintain 85% of its free-feeding weight. In the control group, rats are fed DHA-LysoPC or Mg Citrate supplemented diet on schedule similar to test group. After habituation to the apparatus and pre-training, each rat undergoes 4 trials of standard T-maze test (Shoji et al, J. Vis. Exp. (60), e3300, DOI: 10.3791/3300 (2012)) on day 1 or day 21 of Mg-DHA-LysoPC, Mg Citrate or DHA-LysoPC feeding. Rats are subjected to either forced alternation task or left-right discrimination task. Behaviors in the T-maze apparatus is recorded and statistically analyzed by two way repeated measures analysis of variance. […] In another set of experiments, rats fed with Mg Citrate, DHA-LysoPC, or Mg-DHA-LysoPC for 21 days are subjected to novel-object-location (NOL) tests.
(§4) Mg-EPA composition is provided as supplement in standard rat feed. On an average, rats consume about 50 mg/Kg/day of elemental Mg, on a feeding schedule so as to maintain 85% of its free-feeding weight. In the control group, rats are fed EPA or Mg Citrate supplemented diet on scheduled similar to test group. After habituation to the apparatus and pre-training, each rat undergoes 4 trials of standard T-maze test (Shoji et al, J. Vis. Exp. (60), e3300, DOI: 10.3791/3300 (2012)) on day 1 or day 21 of Mg-EPA, Mg Citrate, or EPA feeding. Rats are subjected to either forced alternation task or left-right discrimination task. Behaviors in the T-maze apparatus is recorded and statistically analyzed by two way repeated measures analysis of variance. […]
(§5) Zn-DHA composition is provided as supplement in standard rat feed. […] Behaviors in the T-maze apparatus is recorded and statistically analyzed by two way repeated measures analysis of variance. […]

rats [2] = test: novel-object-location (NOL) tests
Method: as §2, §3, §4, §5

[3] = about 50 mg/kg/day elemental Mg, compared with the fatty acid alone or Mg Citrate
[4] = about 50 mg/Kg/day elemental Mg, day 1 or day 21, compared with the fatty acid alone or Mg Citrate
[5] = about 50 mg/Kg/day elemental Mg for 21 days, compared with the fatty acid alone or Mg Citrate
[6] = about 1 mg/kg body weight/day elemental zinc, compared with the fatty acid alone or zinc gluconate
[7] = about 1 mg/kg body weight/day elemental Zn, day 1 or day 21, compared with the fatty acid alone or zinc gluconate
[8] = about 1 mg/kg/day elemental Zn for 21 days, compared with the fatty acid alone or zinc gluconate

SMILES	immobility time (Sprague-Dawley rats; [3])	swimming and climbing behavior (Sprague-Dawley rats; [3])	working and reference memory (rats [1]; [4])	ability to recognize novel objects (rats [2]; [5])	immobility time (Sprague-Dawley rats; [6])	swimming and climbing behavior (Sprague-Dawley rats; [6])	working and reference memory (rats [1]; [7])	ability to recognize novel objects (rats [2]; [8])
CC/C=C\C/C=C\C/C=C\C/C=C\C/C=C\C/C=C\CCC(=O)[O-].CC/C=C\C/C=C\C/C=C\C/C=C\C/C=C\C/C=C\CCC(=O)[O-].[Mg+2] [Mg-DHA]	reduction	significant increase	statistically significant increase	statistically significant improvement				
CC/C=C\C/C=C\C/C=C\C/C=C\C/C=C\CCCC(=O)[O-].CC/C=C\C/C=C\C/C=C\C/C=C\C/C=C\CCCC(=O)[O-].[Mg+2] [Mg-EPA]	reduction	significant increase	statistically significant increase	statistically significant improvement				
CC/C=C\C/C=C\C/C=C\C/C=C\C/C=C\C/C=C\CCC(=O)[O-].CC/C=C\C/C=C\C/C=C\C/C=C\C/C=C\C/C=C\CCC(=O)[O-].[Zn+2] [Zn-DHA]					reduction	significant increase	statistically significant increase	statistically significant improvement
CC/C=C\C/C=C\C/C=C\C/C=C\C/C=C\CCCC(=O)[O-].CC/C=C\C/C=C\C/C=C\C/C=C\C/C=C\CCCC(=O)[O-].[Zn+2] [Zn-EPA]					reduction	significant increase	statistically significant increase	statistically significant improvement
